Experimental data published in article PMC9917560, “Design, Synthesis and Antimicrobial Evaluation of New N-(1-Hydroxy-1,3-dihydrobenzo[c][1,2]oxaborol-6-yl)(hetero)aryl-2-carboxamides as Potential Inhibitors of Mycobacterial Leucyl-tRNA Synthetase” (International Journal of Molecular Sciences, 2023).
pIC50: −log10 of the molar value. Converted amounts (≈) assume the structure as drawn. Where two headings read alike, the source gives them in different places.

Key:
Mtb laboratory ID IZAK = assay type: cell-based, Mycobacterium tuberculosis; conditions: for Susceptibility: CLSI breakpoints 2020
Mtb laboratory ID MATI = assay type: cell-based, Mycobacterium tuberculosis; conditions: for Susceptibility: CLSI breakpoints 2021
[1] = system: Mycobacterium tuberculosis H37Ra ITM-M006710 (ATCC 9431); test: Antimycobacterial microdilution (resazurin) vs Mtb H37Ra; assay type: cell-based
[2] = system: Mycobacterium tuberculosis H37Rv CNCTC My 331/88 (ATCC 27294); test: Microplate Alamar Blue assay vs Mtb H37Rv; assay type: cell-based; conditions: Mycobacterium tuberculosis
[3] = system: Mycobacterium kansasii DSM 44,162 (ATCC 12478); test: Antimycobacterial microdilution (resazurin) vs M. kansasii; assay type: cell-based; conditions: read-out: MIC M. kansasii
[4] = system: Mycobacterium avium DSM 44,156 (ATCC 25291); test: Antimycobacterial microdilution (resazurin) vs M. avium; assay type: cell-based; conditions: Mycobacterium avium, Middlebrook 7H9, resazurin; read-out: MIC M. avium
[5] = system: Mycolicibacterium aurum DSM 43,999 (ATCC 23366); test: Antimycobacterial microdilution (resazurin) vs M. aurum; assay type: cell-based; conditions: read-out: MIC M. aurum
[6] = system: Mycolicibacterium smegmatis DSM 43,465 (ATCC 607); test: Antimycobacterial microdilution (resazurin) vs M. smegmatis; assay type: cell-based; conditions: Middlebrook 7H9, resazurin, read-out: MIC M. smeg.
[7] = system: Mtb IZAK (MDR clinical isolate); test: microbe, parasite or virus in culture; assay type: cell-based; conditions: Mycobacterium tuberculosis, read-out: MIC Mtb IZAK
[8] = system: Mtb MATI (MDR clinical isolate); test: microbe, parasite or virus in culture; assay type: cell-based; conditions: Mycobacterium tuberculosis, read-out: MIC Mtb MATI
[9] = system: Staphylococcus aureus subsp. aureus CCM 4223 (ATCC 29213); test: Antibacterial microdilution broth (EUCAST); assay type: cell-based; conditions: read-out: MIC Staphylococcus aureus subsp. aureus
[10] = system: methicillin-resistant Staphylococcus aureus subsp. aureus (MRSA) CCM 4750 (ATCC 43300); test: microbe, parasite or virus in culture; assay type: cell-based; conditions: read-out: MIC Methicillin-resistant Staphylococcus aureus subsp. aureus
[11] = system: Staphylococcus epidermidis CCM 4418 (ATCC 12228); test: Antibacterial microdilution broth (EUCAST); assay type: cell-based; conditions: read-out: MIC Staphylococcus epidermidis
[12] = system: Enterococcus faecalis CCM 4224 (ATCC 29212); test: Antibacterial microdilution broth (EUCAST); assay type: cell-based; conditions: read-out: MIC Enterococcus faecalis
[13] = system: Escherichia coli CCM 3954 (ATCC 25922); test: Antibacterial microdilution broth (EUCAST); assay type: cell-based; conditions: Escherichia coli, read-out: MIC Escherichia coli
[14] = system: Klebsiella pneumoniae CCM 4415 (ATCC 10031); test: Antibacterial microdilution broth (EUCAST); assay type: cell-based; conditions: Klebsiella pneumoniae, read-out: MIC Klebsiella pneumoniae
[15] = system: Acinetobacter baumannii DSM 30007 (ATCC 19606); test: Antibacterial microdilution broth (EUCAST); assay type: cell-based; conditions: read-out: MIC Acinetobacter baumannii
[16] = system: Pseudomonas aeruginosa CCM 3955 (ATCC 27853); test: Antibacterial microdilution broth (EUCAST); assay type: cell-based; conditions: read-out: MIC Pseudomonas aeruginosa
[17] = system: Candida albicans CCM 8320 (ATCC 24433); test: Antifungal microdilution broth (EUCAST); assay type: cell-based; conditions: Candida albicans, read-out: MIC Candida albicans
[18] = system: Candida krusei CCM 8271 (ATCC 6258); test: Antifungal microdilution broth (EUCAST); assay type: cell-based; conditions: Pichia kudriavzevii, read-out: MIC Candida krusei
[19] = system: Candida parapsilosis CCM 8260 (ATCC 22019); test: Antifungal microdilution broth (EUCAST); assay type: cell-based; conditions: Lodderomyces parapsilosis, read-out: MIC Candida parapsilosis
[20] = system: Candida tropicalis CCM 8264 (ATCC 750); test: Antifungal microdilution broth (EUCAST); assay type: cell-based; conditions: read-out: MIC Candida tropicalis
[21] = system: Aspergillus fumigatus ATCC 204305; test: Antifungal microdilution broth (EUCAST); assay type: cell-based; conditions: Aspergillus fumigatus, read-out: MIC Aspergillus fumigatus
[22] = system: Aspergillus flavus CCM 8363; test: Antifungal microdilution broth (EUCAST); assay type: cell-based; conditions: Aspergillus flavus, read-out: MIC Aspergillus flavus
[23] = system: Lichtheimia corymbifera CCM 8077; test: Antifungal microdilution broth (EUCAST); assay type: cell-based; conditions: Lichtheimia corymbifera, read-out: MIC Lichtheimia corymbifera
[24] = system: Trichophyton interdigitale CCM 8377 (ATCC 9533); test: Antifungal microdilution broth (EUCAST); assay type: cell-based; conditions: Trichophyton interdigitale, read-out: MIC Trichophyton interdigitale
HepG2 cell line = test: Cytotoxicity screening, CellTiter 96 assay; conditions: for pIC50: Homo sapiens, HepG2, 24 h, read-out: IC50 HepG2; for toxicity to HepG2 up to highest tested concentration: tested up to 500 µM (2, 3), 250 µM (12, 17), 100 µM (6, 7, 11) because of solubility
[25] = Middlebrook 7H9, resazurin, recalculated from µg/mL, read-out: MIC Mtb H37Ra

## [H]/N=C(/N)N[C@H]1[C@H](O)[C@@H](O)[C@H](O[C@@H]2O[C@@H](C)[C@](O)(C=O)[C@H]2O[C@@H]2O[C@@H](CO)[C@H](O)[C@@H](O)[C@@H]2NC)[C@@H](N/C(N)=N\[H])[C@@H]1O [STM, streptomycin]
Mtb laboratory ID IZAK; strain IZAK, CLSI 2020
  Concentration: 6.88 µM
Mtb laboratory ID IZAK; strain IZAK
  Susceptibility: resistant
Mtb laboratory ID MATI; strain MATI, CLSI 2021
  Concentration: >27.51 µM
Mtb laboratory ID MATI; strain MATI
  Susceptibility: resistant

## O=C(Nc1ccc2c(c1)B(O)OC2)c1cnc2ccccc2n1 [Compound 17, N-(1-hydroxy-1,3-dihydrobenzo[c][1,2]oxaborol-6-yl)quinoxaline-2-carboxamide]
[1]; [25]
  MIC: > 819 µM
[2]; pH 6.6, MABA, Middlebrook 7H9 pH 6.6, recalculated from µg/mL, read-out: MIC Mtb H37Rv
  MIC: 20.5 µM (≈ 6.25 µg/mL)
[3]; Middlebrook 7H9, resazurin
  MIC: 25.6 µM (≈ 7.81 µg/mL)
[4]
  MIC: 102 µM (≈ 31.3 µg/mL)
[5]; Middlebrook 7H9, resazurin
  MIC: 12.8 µM (≈ 3.91 µg/mL)
[6]
  MIC: 12.8 µM (≈ 3.91 µg/mL)
[7]
  MIC: 41 µM (≈ 12.5 µg/mL)
[8]
  MIC: 41 µM (≈ 12.5 µg/mL)
[9]; 24h incubation
  MIC: > 500 µM
[9]; 48h incubation
  MIC: > 500 µM
[10]; 24 h
  MIC: > 500 µM
[10]; 48 h
  MIC: > 500 µM
[11]; 24h incubation
  MIC: > 500 µM
[11]; 48h incubation
  MIC: > 500 µM
[12]; 24h incubation
  MIC: > 500 µM
[12]; 48h incubation
  MIC: > 500 µM
[13]; 24h incubation
  MIC: > 500 µM
[13]; 48h incubation
  MIC: > 500 µM
[14]; 24h incubation
  MIC: > 500 µM
[14]; 48h incubation
  MIC: > 500 µM
[15]; 24h incubation
  MIC: > 500 µM
[15]; 48h incubation
  MIC: > 500 µM
[16]; 24h incubation
  MIC: > 500 µM
[16]; 48h incubation
  MIC: > 500 µM
[17]; 24h incubation
  MIC: > 500 µM
[17]; 48h incubation
  MIC: > 500 µM
[18]; 24h incubation
  MIC: > 500 µM
[18]; 48h incubation
  MIC: > 500 µM
[19]; 24h incubation
  MIC: > 500 µM
[19]; 48h incubation
  MIC: > 500 µM
[20]; 24h incubation
  MIC: > 500 µM
[20]; 48h incubation
  MIC: > 500 µM
[21]; ATCC204305, 24h incubation
  MIC: > 500 µM
[21]; ATCC204305, 48h incubation
  MIC: > 500 µM
[22]; CCM8363, 24h incubation
  MIC: > 500 µM
[22]; CCM8363, 48h incubation
  MIC: > 500 µM
[23]; CCM8077, 24h incubation
  MIC: > 500 µM
[23]; CCM8077, 48h incubation
  MIC: > 500 µM
[24]; 72h incubation
  MIC: > 500 µM
[24]; 120h incubation
  MIC: > 500 µM
HepG2 cell line
  pIC50: < 3.60
  toxicity to HepG2 up to highest tested concentration: non-toxic

## CO[C@H]1/C=C/O[C@@]2(C)Oc3c(C)c(O)c4c(O)c(c(/C=N/N5CCN(C)CC5)c(O)c4c3C2=O)NC(=O)/C(C)=C\C=C\[C@H](C)[C@H](O)[C@@H](C)[C@@H](O)[C@@H](C)[C@H](OC(C)=O)[C@@H]1C [RIF, rifampicin, reference compound]
[1]; [25]
  MIC: 0.00759 µM (≈ 0.00625 µg/mL)
[3]; Middlebrook 7H9, resazurin
  MIC: 0.06 µM (≈ 0.0494 µg/mL)
[4]
  MIC: 0.08 µM (≈ 0.0658 µg/mL)
[5]; Middlebrook 7H9, resazurin
  MIC: 0.47 µM (≈ 0.387 µg/mL)
[6]
  MIC: 15.2 µM (≈ 12.5 µg/mL)
Mtb laboratory ID IZAK
  Concentration: >9.72 µM
Mtb laboratory ID IZAK; strain IZAK
  Susceptibility: resistant
Mtb laboratory ID MATI
  Concentration: >9.72 µM
Mtb laboratory ID MATI; strain MATI
  Susceptibility: resistant

## Nc1ncc(Cl)nc1C(=O)Nc1ccc2c(c1)B(O)OC2 [Compound 7, 3-amino-6-chloro-N-(1-hydroxy-1,3-dihydrobenzo[c][1,2]oxaborol-6-yl)pyrazine-2-carboxamide]
[1]; read-out: MIC Mtb H37Ra, Middlebrook 7H9, resazurin, recalculated from µg/mL
  MIC: > 1850 µM
[2]; pH 6.6, read-out: MIC Mtb H37Rv, MABA, Middlebrook 7H9 pH 6.6, recalculated from µg/mL
  MIC: > 328 µM
[3]
  MIC: > 1850 µM
[4]
  MIC: 411 µM (≈ 125 µg/mL)
[5]
  MIC: > 1850 µM
[6]
  MIC: 411 µM (≈ 125 µg/mL)
[9]; 24 h
  MIC: > 125 µM
[9]; 48 h
  MIC: > 125 µM
[10]; 24 h
  MIC: > 125 µM
[10]; 48 h
  MIC: > 125 µM
[11]; 24 h
  MIC: > 125 µM
[11]; 48 h
  MIC: > 125 µM
[12]; 24 h
  MIC: > 125 µM
[12]; 48 h
  MIC: > 125 µM
[13]; 24 h
  MIC: > 125 µM
[13]; 48 h
  MIC: > 125 µM
[14]; 24 h
  MIC: > 125 µM
[14]; 48 h
  MIC: > 125 µM
[15]; 24 h
  MIC: > 125 µM
[15]; 48 h
  MIC: > 125 µM
[16]; 24 h
  MIC: > 125 µM
[16]; 48 h
  MIC: > 125 µM
[17]; 24 h
  MIC: > 125 µM
[17]; 48 h
  MIC: > 125 µM
[18]; 24 h
  MIC: > 125 µM
[18]; 48 h
  MIC: > 125 µM
[19]; 24 h
  MIC: > 125 µM
[19]; 48 h
  MIC: > 125 µM
[20]; 24 h
  MIC: > 125 µM
[20]; 48 h
  MIC: > 125 µM
[21]; ATCC204305, 24 h
  MIC: > 125 µM
[21]; ATCC204305, 48 h
  MIC: > 125 µM
[22]; CCM8363, 24 h
  MIC: > 125 µM
[22]; CCM8363, 48 h
  MIC: > 125 µM
[23]; CCM8077, 24 h
  MIC: > 125 µM
[23]; CCM8077, 48 h
  MIC: > 125 µM
[24]; 72 h
  MIC: > 125 µM
[24]; 120 h
  MIC: > 125 µM
other
  melting point: 242.9 to 244.4 °C
HepG2 cell line
  pIC50: < 4.00
  toxicity to HepG2 up to highest tested concentration: non-toxic

## NC(=O)c1cnccn1 [PZA, pyrazinamide]
Mtb laboratory ID IZAK; strain IZAK, CLSI 2020
  Concentration: >129.96 µM
Mtb laboratory ID IZAK; strain IZAK
  Susceptibility: resistant
Mtb laboratory ID MATI; strain MATI, CLSI 2021
  Concentration: >1039.70 µM
Mtb laboratory ID MATI; strain MATI
  Susceptibility: resistant
